# Columns and labels:
# [1] = system: U373MG cells expressing hiCE; test: Growth inhibition assay with inhibitors and CPT-11; type: cell-based; conditions: U373MGhiCE cells
# [2] = system: mammalian CEs (hCE1, hiCE, rCE); test: CE inhibition across mammalian CEs; type: biochemical; conditions: hCE1, hiCE or rCE, o-NPA substrate
# [3] = Spontaneous hydrolysis in buffered aqueous solution; type: physicochemical; conditions: within 5 mins of addition to buffered aqueous (pH 7.4) solution
# CE = test: Ability of compounds to act as CE substrates; type: biochemical; conditions: 200 μM compound, 50 mM Hepes pH 7.4, data not shown
# hAChE = hAChE (Homo sapiens, UniProt P22303); test: Inhibition of acetylcholinesterase; type: biochemical
# hBChE = hBChE (Homo sapiens, UniProt P06276); test: Inhibition of butyrylcholinesterase; type: biochemical
# Sequence of hBChE (P06276 29-602): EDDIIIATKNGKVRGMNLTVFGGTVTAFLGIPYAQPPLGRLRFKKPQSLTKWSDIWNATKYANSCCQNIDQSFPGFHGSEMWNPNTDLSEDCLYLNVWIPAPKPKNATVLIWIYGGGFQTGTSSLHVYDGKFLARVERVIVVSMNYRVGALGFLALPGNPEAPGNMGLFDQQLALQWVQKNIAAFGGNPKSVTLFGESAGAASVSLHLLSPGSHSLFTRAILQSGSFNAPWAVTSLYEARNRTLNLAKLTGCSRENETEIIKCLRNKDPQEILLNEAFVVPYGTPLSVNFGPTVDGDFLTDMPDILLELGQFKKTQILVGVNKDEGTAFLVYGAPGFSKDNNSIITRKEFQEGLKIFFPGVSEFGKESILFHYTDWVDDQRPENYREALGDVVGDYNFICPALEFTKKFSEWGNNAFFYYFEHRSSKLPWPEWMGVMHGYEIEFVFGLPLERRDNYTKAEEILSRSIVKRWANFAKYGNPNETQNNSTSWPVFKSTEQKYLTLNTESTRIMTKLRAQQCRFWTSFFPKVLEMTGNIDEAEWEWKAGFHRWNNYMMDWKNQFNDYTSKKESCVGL
# Sequence of hAChE (P22303 32-614): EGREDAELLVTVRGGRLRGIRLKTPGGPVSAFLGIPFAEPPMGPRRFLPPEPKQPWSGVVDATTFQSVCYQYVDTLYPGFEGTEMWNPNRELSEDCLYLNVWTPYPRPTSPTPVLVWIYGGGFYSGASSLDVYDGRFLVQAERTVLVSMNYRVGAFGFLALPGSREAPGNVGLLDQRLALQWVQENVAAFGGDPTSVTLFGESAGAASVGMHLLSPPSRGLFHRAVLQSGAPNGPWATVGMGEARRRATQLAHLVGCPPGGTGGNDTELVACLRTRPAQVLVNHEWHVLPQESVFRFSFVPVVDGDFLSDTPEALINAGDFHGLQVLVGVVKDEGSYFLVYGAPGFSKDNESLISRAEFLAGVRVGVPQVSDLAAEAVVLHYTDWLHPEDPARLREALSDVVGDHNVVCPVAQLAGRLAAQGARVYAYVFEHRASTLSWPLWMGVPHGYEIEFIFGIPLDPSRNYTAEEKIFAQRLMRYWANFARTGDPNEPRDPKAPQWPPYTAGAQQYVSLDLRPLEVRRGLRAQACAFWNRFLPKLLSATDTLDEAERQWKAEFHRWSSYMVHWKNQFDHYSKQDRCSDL
Compound,CE inhibition (in words) [2],Compound hydrolyzed spontaneously [3],Hydrolysis on addition of CE (in words) (CE),also measured
"O=C(C(=O)c1ccccc1)c1ccccc1 [Compound 1, Benzil, reference compound]",–,–,–,Reduction of toxicity of CPT-11 ([1]; versus CPT-11 alone): ~ 6 fold
"O=C(Oc1ccccc1)C(=O)Oc1ccccc1 [Compound 4, Diphenyl ethanedioate]",ineffective at enzyme inhibition,greater than 40%,not enhanced,–
"CCCCCCC(=O)C(=O)CCCCCC [Compound 13, Tetradecane-7,8-dione]",–,–,–,Modulation of CPT-11 cytotoxicity (in words) ([1]; 10 μM inhibitor): ineffective
"O=C(Nc1ccccc1)C(=O)Nc1ccccc1 [Compound 2, Oxanilide]",not an inhibitor,–,–,Activity towards hAChE (in words) (hAChE): lacked activity; Activity towards hBChE (in words) (hBChE): lacked activity
"O=C(Sc1ccccc1)C(=O)Sc1ccccc1 [Compound 3, S^1, S^2-Diphenyl ethane bis(thioate)]",ineffective at enzyme inhibition,greater than 40%,not enhanced,–

# From PMC3139784 (Bioorganic & medicinal chemistry, 2011)
